Test results from US11944429B2, “Automatically classifying animal behavior” (President and Fellows of Harvard College, priority 2015, dated 2024).

Test system: mice
Assay: Innate behavioral response to odorant in odor box (3D depth imaging, AR-HMM)
Format: in vivo, mouse

CC1=NC(C)SC1C (stereo not drawn) [TMT]
behavioral response to odor-containing quadrant (TMT delivered to one quadrant of the box via olfactometer): avoided the quadrant containing the predator cue and displayed prolonged periods of immobility | per frame entropy rate with self-transitions (after TMT exposure): 0.64±0.02 bits | per frame entropy rate without self-transitions (after TMT exposure): 3.66±0.08 bits | number of times the most commonly-expressed freezing trigram was expressed (after TMT exposure, in 300 minutes of imaging): 716 times | average during-sequence velocity of freezing sequences (mice in square box, TMT 5% delivered to one quadrant, newly concatenated pausing modules): −0.14±0.54 mm/sec | behavioral modules introduced or eliminated relative to control (n=15 in TMT, n=25 control, model co-trained): no new modules were introduced or eliminated relative to control
